Experimental data as given in article PMC7280195, “Simple ammonium salts acting on sigma-1 receptors yield potential treatments for cancer and depression” (Scientific Reports, 2020).
Counter-ions that a name gives are not always drawn. Like-named read-outs stand apart in the source and are kept apart here.

Experiments:
sigma-2 receptor = target: T1, sigma-2 receptor (Homo sapiens, UniProt Q5BJF2); test: biochemical; assay type: binding
T1 construct: MCF7 cells were suspended in sigma-2 assay buffer (50 mM Tris-HCl; pH 8.0), sonicated (1 minute) and the homogenate was centrifuged; endogenous in cells; host or cells: MCF7 cells (gift), membrane pellet
T1 sequence (Q5BJF2 whole entry): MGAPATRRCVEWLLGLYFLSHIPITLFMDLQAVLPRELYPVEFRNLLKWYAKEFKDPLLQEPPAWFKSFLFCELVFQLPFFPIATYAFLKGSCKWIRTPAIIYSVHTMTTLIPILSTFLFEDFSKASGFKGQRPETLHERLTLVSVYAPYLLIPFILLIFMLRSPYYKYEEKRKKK

mice [1] = test: Tail suspension test; assay type: in vivo
Protocol: Animals were acclimatised to laboratory conditions before the experiment. Each animal was used only once. […] All drugs were dissolved in normal saline and different doses were administered intraperitoneally in a fixed volume of 1 ml.100 g^−1 body weight 30 minutes before the animals were subjected to the test. […] Each mouse was considered immobile when it hung passively and completely motionless. The total immobility period was recorded and compared to vehicle control group.

mice [2] = test: Forced-swim test; assay type: in vivo
MDA-MB-468 cells [3] = test: cells; assay type: cell-based
MCF7 cells = assay type: cell-based
[4] = target: muscarinic acetylcholine receptor; assay type: binding, rat; conditions: for mACh R affinity pKi ± SEM (n) / Ki: rat brain membranes; for mACh R affinity pKi ± SEM (n): 1.35 nM [3H] QNB; for Ki: read-out: mACh R affinity Ki; for mACh R Ki/σ-1 R Ki: ratio between Ki values
[5] = target: human noradrenaline transporter (Homo sapiens, UniProt P23975); test: Monoamine transporter uptake assay, 293 cells expressing noradrenaline transporter; assay type: cell-based
Sequence of human noradrenaline transporter (P23975 whole entry): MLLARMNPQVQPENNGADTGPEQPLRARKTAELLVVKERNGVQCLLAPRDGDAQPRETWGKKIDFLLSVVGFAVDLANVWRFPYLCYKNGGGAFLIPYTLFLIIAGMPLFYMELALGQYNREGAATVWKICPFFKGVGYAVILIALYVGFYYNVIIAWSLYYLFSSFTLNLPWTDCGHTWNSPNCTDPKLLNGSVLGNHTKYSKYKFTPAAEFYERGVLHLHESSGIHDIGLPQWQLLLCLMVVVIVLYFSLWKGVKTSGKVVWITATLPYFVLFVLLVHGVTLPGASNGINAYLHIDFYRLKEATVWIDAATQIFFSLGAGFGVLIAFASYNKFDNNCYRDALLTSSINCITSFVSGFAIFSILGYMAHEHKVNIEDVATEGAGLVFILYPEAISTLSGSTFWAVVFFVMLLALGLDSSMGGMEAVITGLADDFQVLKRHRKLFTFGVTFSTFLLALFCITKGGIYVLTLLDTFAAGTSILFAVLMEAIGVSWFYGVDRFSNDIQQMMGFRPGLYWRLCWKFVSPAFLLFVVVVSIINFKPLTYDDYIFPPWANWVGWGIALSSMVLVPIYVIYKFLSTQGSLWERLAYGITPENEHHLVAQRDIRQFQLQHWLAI

human 5-HT transporter = human 5-HT transporter (Homo sapiens, UniProt P31645); assay type: cell-based
Sequence of human 5-HT transporter (P31645 whole entry): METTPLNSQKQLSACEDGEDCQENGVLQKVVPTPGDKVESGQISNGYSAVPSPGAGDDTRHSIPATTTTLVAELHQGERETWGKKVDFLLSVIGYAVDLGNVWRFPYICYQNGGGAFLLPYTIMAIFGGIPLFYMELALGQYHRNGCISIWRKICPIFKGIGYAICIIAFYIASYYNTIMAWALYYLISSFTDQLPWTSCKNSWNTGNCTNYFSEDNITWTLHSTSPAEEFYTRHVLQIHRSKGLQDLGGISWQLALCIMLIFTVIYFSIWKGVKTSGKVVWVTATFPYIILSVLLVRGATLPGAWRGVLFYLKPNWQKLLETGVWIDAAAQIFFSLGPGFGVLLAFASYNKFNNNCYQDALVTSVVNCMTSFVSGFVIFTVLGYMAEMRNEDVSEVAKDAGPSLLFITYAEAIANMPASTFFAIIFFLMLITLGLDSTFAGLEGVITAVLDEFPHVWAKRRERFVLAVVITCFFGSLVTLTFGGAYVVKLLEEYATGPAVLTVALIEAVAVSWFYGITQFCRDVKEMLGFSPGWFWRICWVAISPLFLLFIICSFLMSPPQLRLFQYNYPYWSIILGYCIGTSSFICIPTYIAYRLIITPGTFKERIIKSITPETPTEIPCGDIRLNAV

[6] = target: T2, human dopamine transporter (Homo sapiens, UniProt Q01959); test: Monoamine transporter uptake assay, 293 cells expressing dopamine transporter; assay type: cell-based
T2 construct: expressed in transfected cells
T2 sequence (Q01959 whole entry): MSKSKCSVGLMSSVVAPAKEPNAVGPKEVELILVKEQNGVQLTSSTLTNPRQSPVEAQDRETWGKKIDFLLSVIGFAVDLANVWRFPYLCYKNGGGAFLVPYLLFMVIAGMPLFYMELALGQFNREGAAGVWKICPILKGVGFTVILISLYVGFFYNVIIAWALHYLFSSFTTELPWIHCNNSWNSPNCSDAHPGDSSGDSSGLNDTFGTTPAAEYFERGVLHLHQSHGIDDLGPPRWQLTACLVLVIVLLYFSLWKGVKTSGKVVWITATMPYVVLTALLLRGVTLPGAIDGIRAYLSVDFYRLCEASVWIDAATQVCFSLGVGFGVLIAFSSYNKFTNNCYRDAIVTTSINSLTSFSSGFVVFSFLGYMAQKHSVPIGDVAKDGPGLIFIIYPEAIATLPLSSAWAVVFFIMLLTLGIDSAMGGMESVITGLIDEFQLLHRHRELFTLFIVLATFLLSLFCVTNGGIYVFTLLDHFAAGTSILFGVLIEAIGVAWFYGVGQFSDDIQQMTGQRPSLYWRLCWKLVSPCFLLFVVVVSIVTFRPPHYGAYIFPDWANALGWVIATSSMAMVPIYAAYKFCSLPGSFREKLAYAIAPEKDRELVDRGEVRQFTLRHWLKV

mice [7] = test: Locomotor activity (Actophotometer); assay type: in vivo; conditions: control 140 ± 15
Protocol: All drugs were dissolved in normal saline and different doses were administered intraperitoneally in a fixed volume of 1 ml.100 g^−1 body weight 30 minutes before the animals were subjected to the test.
Locomotor activity (ambulations) was measured by using a computerised Actophotometer (IMCORP, India). […] Mice were allowed to acclimatise to the observation chamber for a period of 2 minutes. The activity was monitored continuously for a period of 15 minutes. Locomotion was expressed in terms of total photobeam counts per 15 minutes per animal and compared to vehicle control groups as previously described.

MDA-MB-468 cells [8] = test: Fura-2 cytoplasmic calcium measurement in MDA-MB-468 cells; assay type: cell-based
MAC13 cells = test: MTS assay in MAC13 cells in vitro; assay type: cell-based, mouse; conditions: mean ± SEM, n = 6
Protocol: Cells (10,000 cells per well, 100 μl) were seeded into 96-well plates and allowed to adhere overnight. The following day drugs were added and cells were permitted to proliferate for 24 hours before the addition of 10 μl CellTiter 96 AQueous Non-Radioactive Cell Proliferation Assay reagent (Promega, Southampton, UK) as previously described. Absorbance (490 nm) readings were taken at 0, 1, 2 and 3 hours to monitor formazan formation and rates of metabolic activity were compared.

[9] = dipentylammonium 5 mg.kg−1 plus BD1047 4 mg.kg−1

SMILES: CCCC[N+](CCCC)(CCCC)CCCC [Tetrabutyl, tetrabutylammonium]
- Ki (sigma-2 receptor): 60 µM

SMILES: CCCN(CCC)CCC [Tripropyl]
- σ-2 R affinity pKi ± SEM (n) (sigma-2 receptor): 4.36 ± 0.07 (3)
- Ki (sigma-2 receptor; read-out: σ-2 R affinity Ki): 44 µM

SMILES: CNCCC(Oc1ccc(C(F)(F)F)cc1)c1ccccc1 (centres unmarked) [Fluoxetine, fluoxetine, reference compound]
- time spent immobile, tail suspension test (mice [1]; 10 mg.kg−1, 6 minutes, control 235 ± 19): 126 ± 22 s
- time spent immobile, forced-swim test (mice [2]; 10 mg.kg−1 i.p., 6 minutes, control 233 ± 10): 153 ± 19 s

SMILES: CCCN [Propyl]
- σ-2 R affinity pKi ± SEM (n) (sigma-2 receptor): <3 (3)

SMILES: C1CCC(NC2CCCCC2)CC1 [Dicyclohexyl, dicyclohexylammonium]
- IC50 (MDA-MB-468 cells [3]; Homo sapiens, MDA-MB-468, 24 h, read-out: pIC50 reduction of cell metabolism (converted)): 126 µM
- Ki (sigma-2 receptor): 0.138 µM
- effect on MCF7 cells in MTS assay (MCF7 cells; MCF7 cells (sigma-2 only)): without effect

SMILES: CC[N+](CC)(CC)CC [Tetraethyl]
- σ-2 R affinity pKi ± SEM (n) (sigma-2 receptor): <3 (3)

SMILES: CN(C)C.Cl [Trimethyl]
- σ-2 R affinity pKi ± SEM (n) (sigma-2 receptor): <3 (3)

SMILES: C[C@@H]1CN(CCCn2c3ccccc3c3ccccc32)C[C@H](C)N1 [Rimcazole, 9-[3-(cis−3,5-dimethyl-1-piperizinyl)propyl]-9H-carbazole dihydrochloride, reference compound]
- mACh R affinity pKi ± SEM (n) [4]: 4.49 ± 0.10 (7)
- mACh R affinity pKi ± SEM (n) ([4]; listed as rimcazole): 4.5 ± 0.1
- Ki [4]: 32 µM

SMILES: CNC [Dimethyl]
- σ-2 R affinity pKi ± SEM (n) (sigma-2 receptor): <3 (3)

SMILES: CCCCCCCCN.Cl [Octyl]
- σ-2 R affinity pKi ± SEM (n) (sigma-2 receptor): 5.2 ± 0.2 (3)
- Ki (sigma-2 receptor; read-out: σ-2 R affinity Ki): 6.2 µM

SMILES: CCCCCCCCN(CCCCCCCC)CCCCCCCC.Cl [Trioctyl]
- σ-2 R affinity pKi ± SEM (n) (sigma-2 receptor): 3.74 ± 0.06 (3)
- Ki (sigma-2 receptor; read-out: σ-2 R affinity Ki): 180 µM

SMILES: CCCCCN(CCCCC)CCCCC [Tripentyl, tripentylammonium]
- σ-2 R affinity pKi ± SEM (n) (sigma-2 receptor): 6.1 ± 0.1 (3)
- Ki (sigma-2 receptor; read-out: σ-2 R affinity Ki): 0.78 µM
- mACh R affinity pKi ± SEM (n) [4]: 4.3 ± 0.4 (4)
- Ki [4]: 47 µM
- mACh R Ki/σ-1 R Ki [4]: 3130
- effect on immobility time, forced-swim test (mice [2]; doses up to 10 mg.kg−1): did not have any significant effect

SMILES: CC(C)CN(CC(C)C)CC(C)C.Cl [Triisobutyl]
- σ-2 R affinity pKi ± SEM (n) (sigma-2 receptor): 5.46 ± 0.06 (3)
- Ki (sigma-2 receptor; read-out: σ-2 R affinity Ki): 3.5 µM

SMILES: CCCCN [Butyl]
- σ-2 R affinity pKi ± SEM (n) (sigma-2 receptor): 3.26 ± 0.05 (3)
- Ki (sigma-2 receptor; read-out: σ-2 R affinity Ki): 550 µM

SMILES: CCCCCCCCCCCCN(CCCCCCCCCCCC)CCCCCCCCCCCC [Tridodecyl]
- σ-2 R affinity pKi ± SEM (n) (sigma-2 receptor): 4.1 ± 0.6 (3)
- Ki (sigma-2 receptor; read-out: σ-2 R affinity Ki): 76 µM

SMILES: NC1C2CC3CC(C2)CC1C3 (centres unmarked) [2-adamantyl]
- σ-2 R affinity pKi ± SEM (n) (sigma-2 receptor): 5.5 ± 0.2 (3)
- Ki (sigma-2 receptor; read-out: σ-2 R affinity Ki): 3.5 µM

SMILES: CCC(C)NC(C)CC (centres unmarked) [Di-sec-butyl, di-sec-butylammonium]
- σ-2 R affinity pKi ± SEM (n) (sigma-2 receptor): 5.2 ± 0.2 (3)
- Ki (sigma-2 receptor; read-out: σ-2 R affinity Ki): 6.3 µM

SMILES: CCCCCCN.Cl [Hexyl]
- σ-2 R affinity pKi ± SEM (n) (sigma-2 receptor): 5.1 ± 0.2 (3)
- Ki (sigma-2 receptor; read-out: σ-2 R affinity Ki): 7.8 µM

SMILES: CCCCCNCCCCC [Dipentyl, dipentylammonium]
- pIC50 noradrenaline transport [5]: 3.6 ± 0.1
- IC50 ([5]; read-out: IC50 noradrenaline transport): 200 µM
- time spent immobile, tail suspension test (mice [1]; 5 mg.kg−1, 6 minutes, control 235 ± 19): 116 ± 7 s
- time spent immobile, tail suspension test (mice [1]; [9]): 182 ± 30 s
- pIC50 serotonin reuptake (human 5-HT transporter): 3.0 ± 0.2
- IC50 (human 5-HT transporter; read-out: IC50 serotonin reuptake): 1100 µM
- σ-2 R affinity pKi ± SEM (n) (sigma-2 receptor): 6.9 ± 0.2 (3)
- Ki (sigma-2 receptor; read-out: σ-2 R affinity Ki): 0.12 µM
- mACh R affinity pKi ± SEM (n) [4]: 3.4 ± 0.2 (5)
- Ki [4]: 380 µM
- mACh R Ki/σ-1 R Ki [4]: 8840
- pIC50 dopamine transport [6]: 3.2 ± 0.2
- IC50 ([6]; read-out: IC50 dopamine transport): 600 µM
- time spent immobile, forced-swim test (mice [2]; 5 mg.kg−1 i.p., 6 minutes, control 233 ± 10): 80 ± 13 s
- time spent immobile, forced-swim test (mice [2]; [9]): 185 ± 5 s
- locomotion (mice [7]; 5 mg.kg−1 alone): 128 ± 19 events in 15 minutes
- locomotion (mice [7]; [9]): 114 ± 14 events in 15 minutes

SMILES: CCCCCCCCCCN [Decyl, decylammonium]
- σ-2 R affinity pKi ± SEM (n) (sigma-2 receptor): 5.41 ± 0.07 (3)
- Ki (sigma-2 receptor; read-out: σ-2 R affinity Ki): 3.9 µM

SMILES: CCCNCCC.Cl [Dipropyl]
- σ-2 R affinity pKi ± SEM (n) (sigma-2 receptor): 4.10 ± 0.07 (3)
- Ki (sigma-2 receptor; read-out: σ-2 R affinity Ki): 79 µM

SMILES: CCNCC.Cl [Diethyl]
- σ-2 R affinity pKi ± SEM (n) (sigma-2 receptor): <3 (3)

SMILES: CCCCNCCCC [Dibutyl]
- σ-2 R affinity pKi ± SEM (n) (sigma-2 receptor): 5.64 ± 0.07 (3)
- Ki (sigma-2 receptor; read-out: σ-2 R affinity Ki): 2.3 µM

SMILES: CN(C)CCN(C)CCc1ccc(Cl)c(Cl)c1 [BD1047, N’-[2-(3,4-dichlorophenyl)ethyl]-N,N,N’-trimethylethane-1,2-diamine, reference compound]
- time spent immobile, forced-swim test (mice [2]; ip, 4 mg/kg, 0.1 h): 217 ± 17 s

SMILES: CCCCCCCCNCCCCCCCC [Dioctyl, dioctylammonium]
- behaviour in the calcium buffer (MDA-MB-468 cells [8]; calcium response could not be assessed): precipitation was observed
- pIC50 reduction of cell metabolism (MDA-MB-468 cells [3]): 5.0 ± 0.2
- σ-2 R affinity pKi ± SEM (n) (sigma-2 receptor): 7.9 ± 0.5 (3)
- Ki (sigma-2 receptor; read-out: Ki for sigma-2 receptors): 0.013 µM
- Ki (sigma-2 receptor; read-out: σ-2 R affinity Ki): 0.014 µM

SMILES: CC(C)CNCC(C)C [Diisobutyl]
- σ-2 R affinity pKi ± SEM (n) (sigma-2 receptor): 5.2 ± 0.2 (3)
- Ki (sigma-2 receptor; read-out: σ-2 R affinity Ki): 6.6 µM

SMILES: CCN(CC)CC [Triethyl]
- σ-2 R affinity pKi ± SEM (n) (sigma-2 receptor): 3.66 ± 0.04 (3)
- Ki (sigma-2 receptor; read-out: σ-2 R affinity Ki): 220 µM

SMILES: CCCCCN [Pentyl]
- σ-2 R affinity pKi ± SEM (n) (sigma-2 receptor): 3.9 ± 0.1 (3)
- Ki (sigma-2 receptor; read-out: σ-2 R affinity Ki): 130 µM

SMILES: CC(C)NC(C)C [Diisopropyl]
- σ-2 R affinity pKi ± SEM (n) (sigma-2 receptor): 4.1 ± 0.1 (3)
- Ki (sigma-2 receptor; read-out: σ-2 R affinity Ki): 71 µM

SMILES: CCCCC(CC)CNCC(CC)CCCC (centres unmarked) [Bis(2-ethylhexyl), bis(2-ethylhexyl)ammonium]
- pEC50 calcium response (MDA-MB-468 cells [8]; Fura-2 loaded MDA-MB-468 cells): 2.9 ± 0.1
- pIC50 reduction of cell metabolism (MDA-MB-468 cells [3]): 3.3 ± 0.1
- pIC50 reduction of cell metabolism, non-targeting control (MDA-MB-468 cells [3]): 3.37 ± 0.08
- σ-2 R affinity pKi ± SEM (n) (sigma-2 receptor): 4.0 ± 0.2 (3)
- Ki (sigma-2 receptor; read-out: σ-2 R affinity Ki): 91 µM
- effect on MCF7 cells in MTS assay (MCF7 cells): without effect
- mACh R affinity pKi ± SEM (n) [4]: 3.9 ± 0.2 (6)
- Ki [4]: 120 µM
- mACh R Ki/σ-1 R Ki [4]: 4.1
- pIC50 reduction in MAC13 cell metabolism (MAC13 cells): 5.3 ± 0.2
- MAC13 tumour growth compared to vehicle control (MAC13 tumours; 10 mg.kg−1 i.v. daily from day 12, P < 0.001): statistically significant reduction in tumour growth
- tolerability in tumour-bearing mice (MAC13 tumours; 10 mg.kg−1 i.v. daily, grooming activity maintained): no negative signs

SMILES: CCCCCCN(CCCCCC)CCCCCC [Trihexyl, trihexylammonium]
- σ-2 R affinity pKi ± SEM (n) (sigma-2 receptor): 6.63 ± 0.03 (3)
- Ki (sigma-2 receptor; read-out: σ-2 R affinity Ki): 0.23 µM
